Literature values as cited in patent US8324185B2, “Composition for the treatment of obesity and hyperlipidemia” (Nucitec, S.A. DF C.V., priority 2004, dated 2012).

How the values were obtained:
[1] = dietary fat
[2] = target: T1, pancreatic lipase (Homo sapiens, UniProt P16233); details: in vitro
T1 sequence (P16233 17-465): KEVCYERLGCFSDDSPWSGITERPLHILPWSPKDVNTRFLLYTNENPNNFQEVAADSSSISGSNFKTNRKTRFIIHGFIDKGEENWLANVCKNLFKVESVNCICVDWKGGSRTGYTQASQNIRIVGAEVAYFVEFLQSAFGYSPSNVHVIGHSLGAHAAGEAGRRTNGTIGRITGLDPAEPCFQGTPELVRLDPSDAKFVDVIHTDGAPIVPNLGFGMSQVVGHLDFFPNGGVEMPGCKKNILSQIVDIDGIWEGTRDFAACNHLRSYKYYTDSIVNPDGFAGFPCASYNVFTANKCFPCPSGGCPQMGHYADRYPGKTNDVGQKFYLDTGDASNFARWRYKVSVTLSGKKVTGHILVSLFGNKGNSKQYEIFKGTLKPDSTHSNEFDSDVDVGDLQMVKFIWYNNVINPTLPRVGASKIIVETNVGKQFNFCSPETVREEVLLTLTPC

Row | Structure (SMILES) | pK value of the amino group | reduction in fat absorption from the diet [1] [%] | inhibition of pancreatic lipase activity [2]
1 | NCCCC[C@H](N)C(=O)O [lisine] | ~9 | – | –
2 | CCCCCCCCCCC[C@@H](C[C@@H]1OC(=O)[C@H]1CCCCCC)OC(=O)[C@H](CC(C)C)NC=O [orlistat] | – | 30 | fully inhibits
